Results on 2 compounds are retold here after US8445462B2, “Composition for the treatment of osteoarthritis” (Bioiberica, S.A., priority 2007, dated 2013).

Where a name gives a salt, the structure may show the parent alone.

This assay deals with experimental osteoarthritis induced by partial medial meniscectomy in guinea pigs. As to the kind of experiment: Experimental osteoarthritis induced by partial medial meniscectomy in guinea pigs: chondroprotective activity and modified Mankin histological evaluation. The format is in vivo, Dunkin Hartley (DH) guinea pigs. The conditions noted are these: CS 95 mg/kg/day, Man 60 mg/kg/day; for average chondroprotective activity (GAGs, cartilage structure, chondrocyte proliferation): oral gavage once a day for 70 days, blank control group 100%, operated control group 0%; for global histopathological score (modified Mankin) with respect to the operated group, result in words: oral, 70 days. The text has this:
The objective was to evaluate the chondroprotective activity (cartilage protective activity) of a composition formed by a mixture of chondroitin sulphate and mannosamine hydrochloride as sole active components, in a model of experimental osteoarthritis induced by partial medial meniscectomy in guinea pigs (A. M. Bendele, Progressive chronic osteoarthritis in femorotibial joints of partial medial meniscectomized guinea pigs, Vet. Pathol. 24, 444-448 (1987)), comparing said activity with the chondroprotective activity of chondroitin sulphate and of mannosamine hydrochloride.
Dunkin Hartley (DH) guinea pigs with a weight comprised between 580 and 699 g were used. A partial medial meniscectomy was performed in a part of them.
The following treatment groups were formed: blank control group (corresponding to healthy guinea pigs), operated control group (corresponding to guinea pigs in which a partial medial meniscectomy was performed to induce an experimental osteoarthritis in them), operated guinea pigs to which the sodium salt of chondroitin sulphate (95 mg/kg of body weight/day) was administered, operated guinea pigs to which mannosamine hydrochloride (60 mg/kg of body weight/day) was administered, operated guinea pigs to which a mixture of sodium salt of chondroitin sulphate (95 mg/kg of body weight/day) and mannosamine hydrochloride (60 mg/kg of body weight/day) was administered.
On the day after the surgery, the daily administration of the corresponding oral treatments by means of gastric gavage was started, the carrier used being water for injection. The blank control and operated control groups only received the carrier (water for injection) by oral route.
The treatments were administered once a day for 70 days (ten weeks). The body weight and the clinical signs of the animals were recorded twice a day. No remarkable clinical signs were observed throughout the treatment period.
On the day after the administration had ended, the animals were sacrificed by anaesthetic overdose (pentobarbital sodium) and the femorotibial joint of the right rear leg was removed for its fixing in 10% formol for at least 48 hours. Then, they were decalcified, included in paraffin, the necessary sections were obtained and the stainings with Hematoxylin-Eosin and Safranin-O-Fast Green (or Toluidine Blue) were performed for their histological evaluation, which was performed by a pathologist in a blind manner.
The severity of the osteoarthritic injuries was evaluated by means of the modified histologic/histochemical scale of Mankin et al. (H J. Mankin and L. Lipiello Biochemical and metabolic abnormalities in articular cartilage from osteoarthritic human hips. J. Bone Joint Surg.-Amer. 53-A, 523-537 (1971)). […]

Consider `N[C@@H]1C(O)O[C@H](CO)[C@@H](O)[C@@H]1O` (stereo partly drawn) [mannosamine hydrochloride, 2-amino-2-deoxy-D-mannose], for which the “average chondroprotective activity (GAGs, cartilage structure, chondrocyte proliferation)” value was −21% and the “global histopathological score (modified Mankin) with respect to the operated group, result in words” value is given as “no statistically significant differences”.
Take chondroitin sulphate: the “average chondroprotective activity (GAGs, cartilage structure, chondrocyte proliferation)” value is recorded as 12% and the “global histopathological score (modified Mankin) with respect to the operated group, result in words” value is given as “improvement with respect to the operated group, but without statistical significance”.
